We go through 4 molecules from patent US20240115744A1, “FIBRIN-BINDING COMPOUNDS FOR IMAGING AND TREATMENT” (Collagen Medical, LLC, priority 2019, published 2024).

*1 amine or outer side, *2 acyl side, *3 side chain or, on linkers, in order; H or OH if unused. Where a SMILES comes first, the peptide text is derived from it. Bridges are numbered along the chain shown (N, C = ends). [ ]: non-standard residue; d: D form. The star is where a group is joined. NODAGA = O=C(O)CN1CCN(CC(=O)O)CCN(C(CCC(=O)*)C(=O)O)CC1; Tyr(3-Cl) = N[C@@H](Cc1ccc(O)c(Cl)c1)C(=O)O; Nicotinoyl(6-F) = O=C(c1ccc(F)nc1)*; X1 = O=C([C@@H]1CC(O)CN1[*:1])[*:2]; Hyp = O=C(O)[C@@H]1C[C@@H](O)CN1

The target in series [1] is T1, soluble fibrin fragment DD(E) (Homo sapiens, UniProt P02671+P02675+P02679, DEL433-453).
T1 construct: partial plasmin digestion of purified fibrin gel followed by size-exclusion chromatographic purification; made in house
The series is described as follows: Fluorescence polarization DD(E) binding/displacement assay. The note with it: for Ki: displacement of TRITC-labelled peptide from DD(E), TBS·Ca with 2% DMSO, estimated uncertainty ±10%, read-out: Ki; for Kd: sub-micromolar affinity, read-out: affinity (Kd) to fibrin as assessed by DD(E) assay. The method, then:
DD(E) was prepared using a published procedure which involved partial plasmin digestion of purified fibrin gel followed by size-exclusion chromatographic purification, and purity was assessed by SDS-PAGE. Peptides modified at the N-terminus with tetramethyl-rhodamine (TRITC) dye bind to DD(E). Direct fluorescent peptide binding to DD(E) was measured by a fluorescence polarization (FP) assay. The anisotropy (robs) of the fluorescently labeled peptides binding to DD(E) (0-20 μM) was measured in Tris buffered saline (50 mM Tris, 100 mM NaCl and 2 mM CaCl2) at fixed compound concentrations, and the data were fit to a single site model (Eq. 1) to obtain the dissociation constant (Kd) for the DD(E)·(fluorescent peptide) complex.
Displacement of the fluorescent peptide by non-fluorescent compound was measured to determine inhibition constants (Ki). In the presence of an inhibitor, an apparent dissociation constant for the fluorescent compound (Kd app) is determined using Eq. 2. The inhibition constant Ki is related to Kd app by Eq. 2, wherein Kd is the true dissociation constant of the fluorescent compound measured in the absence of inhibitor.
Non-labeled peptide binding to DD(E) was measured by a compound displacement assay, where a DD(E)/Fl·pep complex formed at fixed concentrations of DD(E) and Fl·pep was titrated with increasing concentrations of unlabeled compound. The compound was assayed by mixing DD(E) (4.0 μM, 10 μL) and TRITC (0.1 μM, 10 μL) with increasing concentrations of competing peptide (0.4-100 μM, 20 μL) in TBS·Ca with 2% DMSO in a final volume of 40 μL. Fluorescence polarization of the samples (10 μL, triplicate wells) in ascending concentrations was measured in a 384-well microplate (Corning flat black plate), using a Tecan Infinite 200 Pro fluorescence microplate reader equipped with fluorescence polarization filters, a 535 nm excitation filter and a 590 nm fluorescence emission filter. Average polarization (mP units) readings for each dilution of the compound of interest was converted to anisotropy (r) using Eq. 3.
The data defined a displacement curve (robs vs. [Peptide]), and the inhibitory binding constant, Ki, was determined by least squares fitting of the data (estimated uncertainty in Ki±10%). See Table 2 for the Ki values for the Compounds from Example 1.

Series [2] is described as follows: Stability in rat plasma at 37° C. up to 4 h. It is filed as in vitro ADME. The note with it: after 4 h. As to the method:
The six compounds identified in Example 3 (Compounds 2, 3, 4, 5, 6, and 7) were assayed for stability in rat plasma at 37° C. for up to 4 h. Compounds were dissolved in DMSO to a make a stock solution (0.6 mM). Plasma (995 μL) was spiked with peptide stock solution (5 μL). Incubations were carried at a test compound concentration of 3 μM with a final DMSO concentration of […]. The spiked plasma samples were incubated at 37° C. for 4 h. Aliquots (300 μL) were removed at 0, 0.5, 1, 2 and 4 h and reactions were terminated by adding 600 μL of cold acetonitrile with 0.1% formic acid containing carbutamide (25 μg/mL) as an internal standard. Simultaneously, a plasma sample (995 μL) containing a mixture of benfluorex, propranolol and nortriptyline (40 μM in DMSO) control compounds was also incubated alongside each batch of test compounds and terminated similarly. […] Following centrifugation, the concentration of the compound of interest in the supernatant was quantified by LCMS. […] The peak area for each detected compound was measured to determine the % remaining of each compound and the result was compared with standards of pure compound and compound immediately isolated from plasma (t=0 sample). All assay samples were analyzed in triplicate. […]

Series [3] is described as follows: Radio-HPLC analysis of blood for identification of metabolites. The format is in vivo. The note with it: rat plasma 15 and 90 min after injection. The method, then: Adult male Wistar rats were anesthetized by isoflurane (1-2% in medical air). Body temperature was maintained at 37° C. using a thermo-regulated heating pad. The right femoral vein and artery were cannulated for compound injection and blood sampling, respectively. Endothelial injury was induced by crush injury to the right common carotid artery (1-2 cm proximal to the carotid bifurcation) by clamping the vessel with a hemostat for 5 minutes. Immediately following the surgical procedures, rats were placed in a micro-PET/CT scanner. Compound (200-600 μL) was injected, PET-CT images were acquired, and blood samples were drawn from the femoral artery prior to compound injection and at 2, 5, 10, 15, 30, 60, 90, 120 min post injection. Tissues were harvested at the end for ex vivo analyses.
Aliquots of the 15 and 90 min plasma samples were injected into a HPLC and fractions were collected each 30 seconds. The fractions counted were compared to pure compound injected into the same column in order to identify the number of metabolites and the fraction of intact compound circulating at each time point.

The target of series [4] is T2, human fibrin (human, UniProt P02671 36-629; P02675 45-491; P02679 27-437, limits assumed).
T2 construct: also called clotted fibrin; immobilized fibrin
T2 sequence (looked up) 1: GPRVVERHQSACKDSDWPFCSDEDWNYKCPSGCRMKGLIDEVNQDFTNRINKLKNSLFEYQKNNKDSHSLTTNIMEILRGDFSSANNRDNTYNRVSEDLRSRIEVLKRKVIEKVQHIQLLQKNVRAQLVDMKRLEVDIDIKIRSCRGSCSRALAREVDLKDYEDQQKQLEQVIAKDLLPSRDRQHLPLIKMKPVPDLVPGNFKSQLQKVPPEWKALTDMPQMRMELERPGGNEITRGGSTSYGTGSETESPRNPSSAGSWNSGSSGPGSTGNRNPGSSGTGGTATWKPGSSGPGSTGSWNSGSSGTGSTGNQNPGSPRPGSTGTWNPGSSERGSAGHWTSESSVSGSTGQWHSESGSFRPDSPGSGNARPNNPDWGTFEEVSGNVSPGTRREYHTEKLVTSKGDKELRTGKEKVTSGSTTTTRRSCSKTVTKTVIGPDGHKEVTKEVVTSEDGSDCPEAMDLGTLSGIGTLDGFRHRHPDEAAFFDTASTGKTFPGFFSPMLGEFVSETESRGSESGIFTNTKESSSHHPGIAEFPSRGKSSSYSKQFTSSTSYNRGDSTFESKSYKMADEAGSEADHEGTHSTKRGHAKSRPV
T2 sequence (looked up) 2: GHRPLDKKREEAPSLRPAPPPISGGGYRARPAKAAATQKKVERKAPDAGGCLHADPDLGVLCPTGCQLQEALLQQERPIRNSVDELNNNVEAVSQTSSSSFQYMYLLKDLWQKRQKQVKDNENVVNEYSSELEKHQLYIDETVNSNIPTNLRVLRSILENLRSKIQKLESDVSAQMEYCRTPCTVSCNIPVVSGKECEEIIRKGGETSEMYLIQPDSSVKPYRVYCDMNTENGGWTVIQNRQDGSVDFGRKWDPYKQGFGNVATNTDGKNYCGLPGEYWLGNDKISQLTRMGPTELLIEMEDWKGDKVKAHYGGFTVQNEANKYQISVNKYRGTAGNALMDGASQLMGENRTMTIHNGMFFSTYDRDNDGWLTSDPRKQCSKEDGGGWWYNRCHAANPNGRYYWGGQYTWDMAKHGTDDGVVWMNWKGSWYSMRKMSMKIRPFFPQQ
T2 sequence (looked up) 3: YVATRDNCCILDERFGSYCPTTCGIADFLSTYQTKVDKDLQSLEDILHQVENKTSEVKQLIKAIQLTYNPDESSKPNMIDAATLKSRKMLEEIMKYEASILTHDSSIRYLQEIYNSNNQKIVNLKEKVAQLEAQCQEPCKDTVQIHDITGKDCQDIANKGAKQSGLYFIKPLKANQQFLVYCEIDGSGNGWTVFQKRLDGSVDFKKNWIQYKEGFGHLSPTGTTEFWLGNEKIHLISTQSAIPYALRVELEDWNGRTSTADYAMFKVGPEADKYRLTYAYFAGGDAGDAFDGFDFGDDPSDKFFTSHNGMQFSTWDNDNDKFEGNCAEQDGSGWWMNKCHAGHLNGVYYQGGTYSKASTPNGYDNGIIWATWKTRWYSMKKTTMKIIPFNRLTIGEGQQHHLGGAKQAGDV
The series is described as follows: radioactivity plate assay on immobilized human fibrin, in TBS buffer. The method, then: Human fibrinogen (1 g) was dissolved in 30 mL of TBS buffer (50 mM Tris, 150 mM NaCl, 5 mM sodium citrate, pH 7.4) and dialyzed in a Slyde-a-Lyzer (20 000 MWCO, Cassette G2) at room temperature. After two changes of buffer, the fibrinogen was centrifuged (10 min, 2000×g) to remove undissolved material. Fibrinogen concentration was determined by measuring the absorbance at 280 nm. Stock fibrinogen solution concentration was 32.1 mg/mL. Fibrin plates with alternating rows of clotted fibrin and empty wells were prepared by polymerizing fibrinogen (100 μL; 2.5 mg/mL) with thrombin (1 U/mL) in TBS·citrate supplemented with 7 mM CaCl₂ in the wells of a 96 well polystyrene microtiter plate (Immulon-II®). […] Clottable protein in individual fibrinogen batches was determined by measuring 280 nm absorbance of the soluble fraction of the solution before and after thrombin treatment, and was generally ≥96% (Fibrin concentration, 7.56 μM).
An aliquot (100 μL) from a known activity (52 μCi in 10 mL TBS buffer) of Compound ¹⁸F-7 was added to a series of 12 known concentrations (0.01-50 μM) of cold Compound 7 (550 μL) in TBS buffer and mixed well to prepare 12 stock solutions. […] All aliquots from supernatants as well as an aliquot (90 μL) from each stock solution were weighed and activity of each was measured using a Cobra 5002 gamma counter. […]

The target in series [5] is T2, human fibrin. Kind of series: radioactivity plate assay on immobilized human fibrin, in human plasma.

Consider `CC[C@H](C)[C@H](NC(=O)[C@H](Cc1ccc(O)cc1)NC(=O)[C@@H]1CSSC[C@H](NC(=O)[C@@H](CCC(=O)O)NC(=O)[C@@H](Cc2ccc(O)cc2)NC(=O)c2ccc(F)nc2)C(=O)N2C[C@H](O)C[C@H]2C(=O)N[C@@H](Cc2ccc(O)c(Cl)c2)C(=O)NCC(=O)N[C@@H](CC(C)C)C(=O)N1)C(=O)N[C@@H](CCC(N)=O)C(N)=O` [Compound 6, -y-e-C-Hyp-Y(3-Cl)-G-L-C-Y-I-Q-] ({Nicotinoyl(6-F)}-[dY][dE]C[Hyp][Tyr(3-Cl)]GLCYIQ-NH2; disulfide 3-8), for which, in series [1], the Ki was 340 nM and the Kd was below 600 nM. Also, the “stability in rat plasma” value in series [2] is recorded as “greatest stability”.

Consider `CC[C@H](C)[C@H](NC(=O)[C@H](Cc1ccc(O)cc1)NC(=O)[C@@H]1CSSC[C@H](NC(=O)[C@@H](CCC(=O)O)NC(=O)[C@H](Cc2ccc(O)cc2)NC(=O)c2ccc(F)nc2)C(=O)N2C[C@H](O)C[C@H]2C(=O)N[C@@H](Cc2ccc(O)c(Cl)c2)C(=O)NCC(=O)N[C@@H](CC(C)C)C(=O)N1)C(=O)N[C@@H](CCC(N)=O)C(N)=O` [Compound 7, -Y-e-C-Hyp-Y(3-Cl)-G-L-C-Y-I-Q-] ({Nicotinoyl(6-F)}-Y[dE]C[Hyp][Tyr(3-Cl)]GLCYIQ-NH2; disulfide 3-8), for which, in series [1], the Ki was 580 nM and the Kd was below 600 nM. The “stability in rat plasma” value in series [2] was “greatest stability”.

On to `CC[C@H](C)[C@H](NC(=O)[C@H](Cc1ccc(O)cc1)NC(=O)[C@@H]1CSSC[C@H](NC(=O)[C@@H](CCC(=O)O)NC(=O)[C@H](Cc2ccc(O)cc2)NC(=O)CCC(C(=O)O)N2CCN(CC(=O)O)CCN(CC(=O)O)CC2)C(=O)N2CC(O)C[C@H]2C(=O)N[C@@H](Cc2ccc(O)c(Cl)c2)C(=O)NCC(=O)N[C@@H](CC(C)C)C(=O)N1)C(=O)N[C@@H](CCC(N)=O)C(N)=O` (stereo partly drawn) [Compound ^68Ga-16, metal not drawn] ({NODAGA}-Y[dE]C[X1][Tyr(3-Cl)]GLCYIQ-NH2; disulfide 3-8), for which the “metabolites / intact compound in blood” value in series [3] is given as “rapidly formed metabolites”.

B1: Compound 18F-7 (peptide)
peptide: {6‑(18F)fluoronicotinoyl}-Y[dE]C[Hyp][Tyr(3-Cl)]GLCYIQ-NH2
modifications: disulfide 3-8
notes: In the plate assay the tracer was mixed with 0.01-50 µM cold Compound 7; also called the fluorine-18 form of Compound 7
Consider B1, for which the figures for the Kd in the series with human fibrin [4] and with human fibrin [5] were 1600 nM and 1800 nM, respectively.
